Results: patent publication US10010493B2, “Ester compound, and cosmetic component and cosmetic product each containing same” (Kokyu Alcohol Kogyo Co., Ltd., priority 2014, dated 2018)
“Also recorded” adds a separate entry of the source.

Assays:
Format in all cases: physicochemical
[1] = Ultraviolet absorber solubility in oily bases; conditions: Tinosorb S 7%; 25° C., visual after 1 week; note: key: C: Soluble; N: Insoluble; (N): Since it is insoluble when ultraviolet absorber is 3%, it is judged to be probably insoluble at 5% as well
Description: Their state after 1 week was evaluated visually.

[2] = Smoothness (MIU, MMD), KES-SE Friction Tester on artificial leather
Description: Smoothness of ester compounds was measured using KES-SE Friction Tester (Kato Tech Co., Ltd.) with a detection-unit jig (an accessory of the tester, made of silicone rubber with irregularities resembling a human finger) and artificial leather (artificial leather Supplare produced by Idemitsu Technofine Co., Ltd.). On the artificial leather, 0.1 ml of an ester compound was droped. The jig was contacted to the site on the surface of the artificial leather where the oil agent was dropped. Temperature of the leather, oil agent and jig was adjusted to 25° C. in a constant temperature bath. Then, the jig was moved back and forth once at the same site with a speed of 1 mm/s (the moving distance of the jig was approximately 80 mm in one back-and-forth movement), and a mean frictional coefficient (MIU) and a fluctuation of mean frictional coefficient (MMD) for one back-and-forth movement were measured. The measurement was performed three times and the average values of MIU and MMD were calculated, which were used as indices of smoothness. For comparison, MIU and MMD of the various ester compounds used in the viscosity measurement were also measured.

[3] = Viscosity, Brookfield viscometer DV-II+; conditions: 25° C., spindle No. 2, 12 rpm
Description: Viscosity of ester compounds was measured using Brookfield viscometer DV-II+ (spindle No. 2, 12 rpm, 25° C.). As a comparison, viscosity of oil agents commonly used in cosmetic products was also measured.

[4] = Glossiness (refractive index), Abbe refractometer NTR-2T; conditions: 20° C.
Description: Measurement is carried out using Abbe refractometer NTR-2T (Atago Co., Ltd.) at 20° C., and resulting values represent refractive index.

[5] = Compatibility with various types of oil agent; parameters: key to Compatibility with Hydrogenated polyisobutene / Compatibility with Isononyl isononanoate / Compatibility with Neopentyl glycol diethylhexanoate / Compatibility with Triethylhexanoin / Compatibility with Octyldodecanol / Compatibility with Polyglyceryl-2 triisostearate / Compatibility with Diisostearyl malate / Compatibility with Olive oil / Compatibility with Isostearic acid / Compatibility with Cyclomethicone / Compatibility with Dimethicone (10 mm^2/s) / Compatibility with Ethanol / Compatibility with Glycerin / Compatibility with Squalane / Compatibility with Mineral oil: C: Compatible; N: Not compatible; conditions: for Compatibility with Cyclomethicone / Compatibility with Diisostearyl malate / Compatibility with Dimethicone (10 mm^2/s) / Compatibility with Ethanol / Compatibility with Glycerin / Compatibility with Hydrogenated polyisobutene / Compatibility with Isononyl isononanoate / Compatibility with Mineral oil / Compatibility with Neopentyl glycol diethylhexanoate / Compatibility with Octyldodecanol / Compatibility with Polyglyceryl-2 triisostearate / Compatibility with Squalane: 25° C., visual after 1 week
Description: Each of TCDNP and TCDDNP obtained in Synthesis Examples 1 and 8 and each of oily bases are combined with a weight ratio of 9:1 or 1:1, and dissolved in a water bath at 80-90° C. for approximately 30 min with stirring, then cooled to 50° C. with stirring, and stored in a thermostatic chamber at 25° C. Their compatibility was evaluated by visually checking the state after 1 week.

[6] = 25° C., 0.1 ml on artificial leather, average of three

Which results are given for `CC(C)(C)C(=O)OCC1CC2CC1C1CCCC21` (stereo not shown) [TCDNP, tricyclo[5.2.1.0^2,6]deca-8-yl-methyl neopentanoate]?
Solubility of ultraviolet absorber Tinosorb S in the component [1]: N; MIU (mean frictional coefficient) [2, 6]: 0.25; MMD (fluctuation of mean frictional coefficient) [2, 6]: 0.006; Smoothness in comparison with other oil agents ([2]; comparison of MIU at similar viscosity): superior smoothness than squalane; also recorded: comparable to dimethicone; Viscosity [3]: 32 mPa · s; Refractive index [4]: 1.479; Compatibility with the oil agents (overall) [5]: excellent compatibility with the oil agents other than glycerin; Compatibility with Cyclomethicone ([5]; 10%): C; Compatibility with Diisostearyl malate ([5]; 10%): C; Compatibility with Dimethicone (10 mm^2/s) ([5]; 10%): C; Compatibility with Ethanol ([5]; 10%): C; Compatibility with Glycerin ([5]; 10%): N; Compatibility with Hydrogenated polyisobutene ([5]; 10%): C; Compatibility with Isononyl isononanoate ([5]; 10%): C; Compatibility with Mineral oil ([5]; 10%): C; Compatibility with Neopentyl glycol diethylhexanoate ([5]; 10%): C; Compatibility with Octyldodecanol ([5]; 10%): C; Compatibility with Polyglyceryl-2 triisostearate ([5]; 10%): C; Compatibility with Squalane ([5]; 10%): C; Compatibility with Cyclomethicone ([5]; 50%): C; Compatibility with Diisostearyl malate ([5]; 50%): C; Compatibility with Dimethicone (10 mm^2/s) ([5]; 50%): C; Compatibility with Ethanol ([5]; 50%): C; Compatibility with Glycerin ([5]; 50%): N; Compatibility with Hydrogenated polyisobutene ([5]; 50%): C; Compatibility with Isononyl isononanoate ([5]; 50%): C; Compatibility with Mineral oil ([5]; 50%): C; Compatibility with Neopentyl glycol diethylhexanoate ([5]; 50%): C; Compatibility with Octyldodecanol ([5]; 50%): C; Compatibility with Polyglyceryl-2 triisostearate ([5]; 50%): C; Compatibility with Squalane ([5]; 50%): C
